Consider ten compounds from PubChem BioAssay AID1745844 (Carcinogenic Potency Database (CPDB), 2022).

Several values for one entry are separate records, joined by “and”; a condition that tells them apart may be missing. Equal entries are not always repeated. Activity calls are given as the source filed them. The rule behind the calls is not given here.

This data set concerns rodent lifetime carcinogenesis bioassay, tumor incidence TD50. The data set is described as follows: carcinogenic potency in animals, long-term in vivo studies, CPDB compilation (AID 1745844).

The term TD50 denotes the dose at which the toxic effect under study appears in half of the subjects. For `NNc1ccccc1`, the TD50 was 147 mg/kg/day (mouse, strain Swiss albino, females, in drinking water, site: blood vessels, lesion: angioma, dosed 112 weeks, study length 112 weeks); 165 mg/kg/day (mouse, strain Swiss albino, females, in drinking water, site: blood vessels, lesion: angiosarcoma, dosed 112 weeks, study length 112 weeks); 72.1 mg/kg/day (mouse, strain Swiss albino, females, in drinking water, site: blood vessels, lesion: several types, types named in the paper, dosed 112 weeks, study length 112 weeks); 165 mg/kg/day (mouse, strain Swiss albino, females, in drinking water, site: liver, lesion: angioma, dosed 112 weeks, study length 112 weeks); 165 mg/kg/day (mouse, strain Swiss albino, females, in drinking water, site: liver, lesion: angiosarcoma, dosed 112 weeks, study length 112 weeks); 68.6 mg/kg/day (mouse, strain Swiss albino, females, in drinking water, site: liver, lesion: several types, types named in the paper, dosed 112 weeks, study length 112 weeks). In addition, the TD50 was 70.6 mg/kg/day (mouse, strain Swiss albino, males, in drinking water, site: blood vessels, lesion: several types, types named in the paper, dosed 112 weeks, study length 112 weeks) and 83.9 mg/kg/day (mouse, strain Swiss albino, males, in drinking water, site: liver, lesion: several types, types named in the paper, dosed 112 weeks, study length 112 weeks). Besides, the carcinogen call was “negative (inactive)” (mouse, strain Swiss albino, females, in drinking water, site: lung, lesion: several types, types named in the paper, dosed 112 weeks, study length 112 weeks); “negative (inactive)” (mouse, strain Swiss albino, males, in drinking water, site: lung, lesion: several types, types named in the paper, dosed 112 weeks, study length 112 weeks); “negative (inactive)” (mouse, strain Swiss, females, by gavage, site: lung, lesion: one or several types, types not named, dosed 39 weeks, study length 55 weeks).

As for `CO[C@@H]1[C@@H](O[C@@H]2O[C@H](C)[C@@H](O[C@H]3C[C@@](C)(O)[C@@H](OC(=O)CC(C)C)[C@H](C)O3)[C@H](N(C)C)[C@H]2O)[C@@H](CC=O)C[C@@H](C)[C@@H](O)/C=C/C=C/C[C@@H](C)OC(=O)C[C@H]1OC(C)=O`, the carcinogen call is “negative (inactive)” (rat, strain F344/DuCrj, females, in feed, site: liver, lesion: hepatocellular adenoma, dosed 104 weeks, study length 106 weeks); “negative (inactive)” (rat, strain F344/DuCrj, females, in feed, site: liver, lesion: one or several types, types not named, dosed 52 weeks, study length 52 weeks); “negative (inactive)” (rat, strain F344/DuCrj, males, in feed, site: liver, lesion: hepatocellular adenoma, dosed 104 weeks, study length 106 weeks); “negative (inactive)” (rat, strain F344/DuCrj, males, in feed, site: liver, lesion: one or several types, types not named, dosed 52 weeks, study length 52 weeks). For the same compound, the TD50 (rat, strain F344/DuCrj, males, in feed, site: liver, lesion: hepatocellular carcinoma, dosed 104 weeks, study length 106 weeks) was 51300 mg/kg/day (inactive).

Turning to `Nc1ccc(O)c(N)c1`, the carcinogen call (mouse, strain B6C3F1, females, by gavage, site: any site (literature study), lesion: several types, types named in the paper, dosed 103 weeks, study length 104 weeks) is “negative (inactive)”. Besides, the TD50 was 2890 mg/kg/day (mouse, strain B6C3F1, females, by gavage, site: liver, lesion: hepatocellular adenoma + hepatocellular carcinoma + neoplastic nodule, dosed 103 weeks, study length 104 weeks); 239 mg/kg/day (mouse, strain B6C3F1, females, by gavage, site: lung, lesion: alveolar/bronchiolar adenoma + alveolar/bronchiolar carcinoma, dosed 103 weeks, study length 104 weeks); 320 mg/kg/day and 143 mg/kg/day (mouse, strain B6C3F1, males, by gavage, site: kidney, lesion: tubule adenoma, dosed 103 weeks, study length 104 weeks); 164 mg/kg/day (mouse, strain B6C3F1, males, by gavage, site: liver, lesion: hepatocellular adenoma + hepatocellular carcinoma + neoplastic nodule, dosed 103 weeks, study length 104 weeks); 194 mg/kg/day (mouse, strain B6C3F1, males, by gavage, site: lung, lesion: alveolar/bronchiolar adenoma + alveolar/bronchiolar carcinoma, dosed 103 weeks, study length 104 weeks); 46.3 mg/kg/day (inactive) (rat, strain Fischer 344, females, by gavage, site: any site (literature study), lesion: several types, types named in the paper, dosed 103 weeks, study length 104 weeks). The TD50 (rat, strain Fischer 344, males, by gavage, site: any site (literature study), lesion: several types, types named in the paper, dosed 103 weeks, study length 104 weeks) is 543 mg/kg/day (inactive).

On to `Cc1cc(=O)[nH]c(=S)[nH]1`, for which the TD50 by setting is: (hamster, strain Not specified, females, in drinking water, site: thyroid gland, lesion: several types, types named in the paper, dosed 52 weeks, study length 52 weeks) 53.4 mg/kg/day; (mouse, strain C3H/FIB, both sexes, in feed, site: liver, lesion: hepatoma, dosed 51 weeks, study length 78 weeks) 1370 mg/kg/day.

Regarding `CN(C)c1ccc(N=NS(=O)(=O)O)cc1`, the TD50 is 259 mg/kg/day (mouse, strain B6C3F1, females, in feed, site: any site (literature study), lesion: several types, types named in the paper, dosed 78 weeks, study length 95 weeks); 152 mg/kg/day (mouse, strain B6C3F1, females, in feed, site: liver, lesion: hepatocellular adenoma + hepatocellular carcinoma + neoplastic nodule, dosed 78 weeks, study length 95 weeks); 152 mg/kg/day (inactive) (mouse, strain B6C3F1, females, in feed, site: liver, lesion: hepatocellular adenoma + hepatocellular carcinoma, dosed 78 weeks, study length 95 weeks); 1750 mg/kg/day (mouse, strain B6C3F1, females, in feed, site: lung, lesion: alveolar/bronchiolar adenoma + alveolar/bronchiolar carcinoma, dosed 78 weeks, study length 95 weeks). Moreover, the carcinogen call was “negative (inactive)” (mouse, strain B6C3F1, males, in feed, site: any site (literature study), lesion: several types, types named in the paper, dosed 78 weeks, study length 94 weeks); “negative (inactive)” (rat, strain Fischer 344, females, in feed, site: any site (literature study), lesion: several types, types named in the paper, dosed 78 weeks, study length 105 weeks); “negative (inactive)” (rat, strain Fischer 344, males, in feed, site: any site (literature study), lesion: several types, types named in the paper, dosed 78 weeks, study length 105 weeks).

On to `O=c1cc[nH]c(=S)[nH]1`, for which the TD50 runs as follows: (mouse, strain C3H (MTV+), females, in feed, site: liver, lesion: hepatoma, dosed 73 weeks, study length 73 weeks) 63.3 mg/kg/day; (mouse, strain C3H (MTV+), males, in feed, site: liver, lesion: hepatoma, dosed 73 weeks, study length 73 weeks) 48.6 mg/kg/day; (rat, strain Fischer 344, females, in feed, site: thyroid gland, lesion: malignant tumor, dosed 103 weeks, study length 103 weeks) 22.9 mg/kg/day; (rat, strain Fischer 344, males, in feed, site: thyroid gland, lesion: malignant tumor, dosed 103 weeks, study length 103 weeks) 8.05 mg/kg/day. In addition, the carcinogen call runs as follows: (mouse, strain TM, females, in feed, site: liver, lesion: hepatoma, dosed 73 weeks, study length 73 weeks) “negative (inactive)”; (mouse, strain TM, males, in feed, site: liver, lesion: hepatoma, dosed 73 weeks, study length 73 weeks) “negative (inactive)”.

For the compound `C=CCN(CCO)N=O`, the TD50 was 4.12 mg/kg/day (rat, strain Fischer 344, females, in drinking water, site: liver, lesion: hepatocellular carcinoma, dosed 50 weeks, study length 65 weeks) and 0.491 mg/kg/day (rat, strain Fischer 344, females, in drinking water, site: nasal cavity, lesion: several types, types named in the paper, dosed 50 weeks, study length 65 weeks).

`O=C(Nc1ccc([N+](=O)[O-])cc1Cl)c1cc(Cl)ccc1O`: the carcinogen call runs as follows: (mouse, strain B6C3F1, females, in feed, site: any site (literature study), lesion: several types, types named in the paper, dosed 78 weeks, study length 91 weeks) “negative (inactive)”; (rat, strain Osborne-Mendel, males, in feed, site: any site (literature study), lesion: several types, types named in the paper, dosed 78 weeks, study length 110 weeks) “negative (inactive)”. In addition, the TD50 is 175 mg/kg/day (mouse, strain B6C3F1, males, in feed, site: any site (literature study), lesion: several types, types named in the paper, dosed 78 weeks, study length 91 weeks); 2070 mg/kg/day (rat, strain Osborne-Mendel, females, in feed, site: any site (literature study), lesion: several types, types named in the paper, dosed 78 weeks, study length 110 weeks); 13300 mg/kg/day (rat, strain Osborne-Mendel, females, in feed, site: liver, lesion: hepatocellular adenoma + hepatocellular carcinoma + neoplastic nodule, dosed 78 weeks, study length 110 weeks); 6670 mg/kg/day (rat, strain Osborne-Mendel, females, in feed, site: thyroid gland, lesion: c-cell adenoma + c-cell carcinoma, dosed 78 weeks, study length 110 weeks); 5060 mg/kg/day (inactive) (rat, strain Osborne-Mendel, females, in feed, site: uterus, lesion: endometrial stromal polyp, dosed 78 weeks, study length 110 weeks).

`CC(=O)Nc1ccc2c(c1)Cc1cc(NC(C)=O)ccc1-2`: the TD50 is, setting by setting: (monkey, strain Cynomolgus [Macaca fascicularis], both sexes, in feed, site: breast, lesion: carcinoma, dosed 258 weeks, study length 1513 weeks) 307 mg/kg/day; (monkey, strain Cynomolgus [Macaca fascicularis], both sexes, in feed, site: lung, lesion: alveolar/bronchiolar carcinoma, dosed 258 weeks, study length 1513 weeks) 25.6 mg/kg/day.

`Cc1cn([C@H]2C[C@H](N=[N+]=[N-])[C@@H](CO)O2)c(=O)[nH]c1=O`: the TD50 reads like this: (mouse, strain B6C3F1, females, by gavage, site: any site (literature study), lesion: several types, types named in the paper, dosed 104 weeks, study length 104 weeks) 221 mg/kg/day; (mouse, strain B6C3F1, females, by gavage, site: liver, lesion: hepatocellular adenoma + hepatoblastoma + hepatocellular carcinoma, dosed 104 weeks, study length 104 weeks) 139 mg/kg/day; (mouse, strain B6C3F1, females, by gavage, site: lung, lesion: alveolar/bronchiolar adenoma + alveolar/bronchiolar carcinoma, dosed 104 weeks, study length 104 weeks) 510 mg/kg/day; (mouse, strain B6C3F1, females, by gavage, site: vagina, lesion: squamous-cell carcinoma + squamous-cell papilloma, dosed 104 weeks, study length 104 weeks) 209 mg/kg/day; (mouse, strain B6C3F1, females, by gavage, site: vagina, lesion: squamous-cell carcinoma, dosed 104 weeks, study length 104 weeks) 246 mg/kg/day; (mouse, strain B6C3F1, males, by gavage, site: Harderian gland, lesion: adenoma + carcinoma, dosed 104 weeks, study length 104 weeks) 458 mg/kg/day. Moreover, the TD50 (mouse, strain B6C3F1, males, by gavage, site: Harderian gland, lesion: adenoma, dosed 104 weeks, study length 104 weeks) was 425 mg/kg/day; the TD50 (mouse, strain B6C3F1, males, by gavage, site: kidney, lesion: tubule adenoma + tubule carcinoma, dosed 104 weeks, study length 104 weeks) was determined as 929 mg/kg/day; the TD50 (mouse, strain B6C3F1, males, by gavage, site: kidney, lesion: tubule adenoma, dosed 104 weeks, study length 104 weeks) was 1250 mg/kg/day; the TD50 (mouse, strain Charles River CD1, females, by gavage, site: any site (literature study), lesion: several types, types named in the paper, dosed 95 weeks, study length 95 weeks) stood at 131 mg/kg/day; the TD50 (mouse, strain Charles River CD1, females, by gavage, site: vagina, lesion: several types, types named in the paper, dosed 95 weeks, study length 95 weeks) was 508 mg/kg/day; the TD50 (mouse, strain Charles River CD1, females, by gavage, site: vagina, lesion: squamous-cell carcinoma, dosed 95 weeks, study length 95 weeks) is 715 mg/kg/day. The TD50 (rat, strain Charles River CD (Sprague-Dawley), females, by gavage, site: vagina, lesion: squamous-cell carcinoma, dosed 95 weeks, study length 95 weeks) was 11600 mg/kg/day. The carcinogen call is, setting by setting: (mouse, strain Charles River CD1, males, by gavage, site: any site (literature study), lesion: several types, types named in the paper, dosed 82 weeks, study length 82 weeks) “negative (inactive)”; (rat, strain Charles River CD (Sprague-Dawley), males, by gavage, site: any site (literature study), lesion: several types, types named in the paper, dosed 103 weeks, study length 103 weeks) “negative (inactive)”.
